Read-outs that look alike come from different tables or passages of the source.
Columns and labels:
[1] = system: women with recurrent bacterial vaginosis; details: for Percentage Women Colonized with H2O2-producing Lactobacilli / Women Colonized with H2O2-producing Lactobacilli, number: n = 15
Method: In this study, a group of women with recurrent bacterial vaginosis (BV) was treated with 2% Clindamycin cream, once daily for three days, followed by Lactobacillus suppositories containing the Lactobacillus crispatus CTV-05 strain twice daily for three days. A group of women from the same clinic with recurrent bacterial vaginosis treated with Clindamycin cream alone were included for comparison. […] The patients were evaluated for vaginal presence of H2O2-producing Lactobacilli, and the absence of bacterial vaginosis infection.

[2] = system: Candida albicans ATCC 60193 (cervical isolate); assay: Agar overlay zone of inhibition of yeast growth; type: cell-based; details: Organism Growth Time Period 48 hours
Method: MRS agar was allowed to harden at a 5 mm slant. Lactobacillus crispatus CTV-05 was streaked across the diameter of the plate and was grown for 24, 48 or 72 hours under both anaerobic and ambient atmospheres. Control strains of Lactobacillus jensenii CTV-01, Lactobacillus crispatus CTV-02, Lactobacillus crispatus CTV-03, and Lactobacillus crispatus CTV-04 were grown in the same way. The plates were overlayed with YM agar with 10 mM CNNaS (sodium thiocyanate, previously reported to be an inhibitor of yeast growth) or without CNNaS. The agar overlays were inoculated with one of two strains of Candida albicans ATCC 60193 (cervical isolate) or Candida albicans ATCC 14053 (human blood isolate). Zones of inhibition were measured. […] Therefore, Lactobacillus crispatus CTV-05 inhibits yeast growth in vitro.

CCC[C@@H]1C[C@@H](C(=O)N[C@@H]([C@H]2O[C@H](SC)[C@H](O)[C@@H](O)[C@H]2O)[C@H](C)Cl)N(C)C1 [Clindamycin]
Percentage Women Colonized with H2O2-producing Lactobacilli ([1]; Enrollment): 33%
Women Colonized with H2O2-producing Lactobacilli, number ([1]; Enrollment): 5
Percentage Women Free of Bacterial Vaginosis ([1]; One month post treatment): 53%
Percentage Women Colonized with H2O2-producing Lactobacilli ([1]; One month post treatment): 40%
Women Colonized with H2O2-producing Lactobacilli, number ([1]; One month post treatment): 6
Percentage Women Free of Bacterial Vaginosis ([1]; One week post treatment): 87%
Percentage Women Colonized with H2O2-producing Lactobacilli ([1]; One week post treatment): 7%
Women Colonized with H2O2-producing Lactobacilli, number ([1]; One week post treatment): 1
Percentage Women Free of Bacterial Vaginosis ([1]; Three months post treatment): 26%
Percentage Women Colonized with H2O2-producing Lactobacilli ([1]; Three months post treatment): 33%
Women Colonized with H2O2-producing Lactobacilli, number ([1]; Three months post treatment): 5

Lactobacillus crispatus CTV-02 [reference compound]
Zone of Inhibition (in millimeters) [2]: 3 to 0 mm

Lactobacillus crispatus CTV-04 [reference compound]
Zone of Inhibition (in millimeters) [2]: 5 to 2 mm

Lactobacillus crispatus CTV-03 [reference compound]
Zone of Inhibition (in millimeters) [2]: slight inhibition

Lactobacillus jensenii CTV-01 [reference compound]
Zone of Inhibition (in millimeters) [2]: 1 to 0 mm

Reference: patent publication US6372209B1, “Vaginal lactobacillus medicant” (Gyne Logix, Inc., priority 1997, dated 2002)
